These results are taken from publication PMC10065799, “High-throughput profiling of sequence recognition by tyrosine kinases and SH2 domains using bacterial peptide display” (eLife, 2023).

The subject of the first experiment is EPHB1 kinase domain. Put plainly: pTyr-Var library bacterial peptide display kinase screen (enrichment scores). The experiment is classed as biochemical, human. The note with it: sheet "EPHB1"; variant seq vs reference seq; bacterial peptide display enrichment.
Take HSREDYFECFQ [ZIM2_Y411_Q408R]: the “Screen (variant relative to reference peptide, measured in the pTyr-Var library screen)” value is reported as -0.06401.

MGSFNYLGFAW [SPTLC2_Y178_R183W_YF]: the “Screen (variant relative to reference peptide, measured in the pTyr-Var library screen)” value is recorded as 1.333.

Turning to PEVSGYCHFAD [TG_Y234_C237Y_YF], the “Screen (variant relative to reference peptide, measured in the pTyr-Var library screen)” value was -1.855.

As for RRIHSYRGHLC [VHL_Y112_W117C], the “Screen (variant relative to reference peptide, measured in the pTyr-Var library screen)” value is reported as -1.181.

Regarding RRIHSYRGQLW [VHL_Y112_H115Q], the “Screen (variant relative to reference peptide, measured in the pTyr-Var library screen)” value is reported as -1.797.

For the sequence TGFRPYVCPFD [YY1_Y383_D380Y_YF], the “Screen (variant relative to reference peptide, measured in the pTyr-Var library screen)” value was found to be 1.233.

The experiment is the same for the next values; noted with them: sheet EPHB1; effect of the variant peptide relative to its reference peptide in the pTyr-Var library screen (enrichment scores).
Turning to CPFNLYAAQLS [HGD_Y40_E42A_YF], the Screen worked out at 0.6281.

With FGSGNYNVFGN [HNRNPA2B1_Y300_D302V_YF], the Screen is -1.963.

As for FVPSFYHAFSG [ACTN4_Y265_S262P_YF], the Screen was -0.2788.

KFLENYFDLEK [MMP3_Y41_K45E_YF] gave a Screen of 0.3113.

On to LFSNAYLSDLA [ALDH1A1_Y119_N121S_YF], for which the Screen is recorded as 1.358.

The sequence LKMLVYMDMSK [LRRC7_Y234_L235M] showed a Screen of 1.011.

The sequence LPKDLYLISQM [LARP4_Y141_S137P] showed a Screen of -0.9052.

As for RPAFTYATLIR [FOXP3_Y342_P339A], the Screen is -0.4742.

With RPPFTYATLIH [FOXP3_Y342_R347H], the Screen is 0.127.

With RVLHNYLVWCV [ECEL1_Y400_R404C], the Screen is reported as -0.3702.

The sequence SSSPTYLDLPF [GLI3_Y168_P169L] gave a Screen of 3.84.

In turn, VWALTYCDLHK [KCNH2_Y827_R823W] gave a Screen of 1.577.

The target of a further experiment is T1, c-Abl kinase domain (Mus musculus, UniProt P00520).
T1 sequence (P00520 242-493 limits assumed): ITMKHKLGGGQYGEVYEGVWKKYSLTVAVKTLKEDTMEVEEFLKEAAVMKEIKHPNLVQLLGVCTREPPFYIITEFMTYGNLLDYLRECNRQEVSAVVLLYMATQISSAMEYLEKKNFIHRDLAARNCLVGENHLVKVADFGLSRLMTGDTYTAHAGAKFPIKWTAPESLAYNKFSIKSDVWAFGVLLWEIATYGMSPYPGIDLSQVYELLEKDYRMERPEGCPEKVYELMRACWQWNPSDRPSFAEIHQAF
The experiment is described as above. The experiment is classed as biochemical. The note with it: fig5-data2, sheet "Abl"; Screen for the variant/reference peptide pair, pTyr-Var library.
In turn, ASPKSYPSQKH [CAP2_Y316_T311A] displayed a Screen of 0.389.

Consider DKATEYIQFVR [MAX_Y70_M74V_YF], for which the Screen is recorded as 0.6462.

As to DPEGAYTTRGG [EPHA3_Y779_A777G], the Screen is given as -2.084.

With DVRQEYSGMIL [PLXND1_Y616_P617S], the Screen is given as -0.7051.

As to EFITRYIDSLK [PSMA7_Y110_A112D_YF], the Screen was -0.5363.

Sequence EFTAGYNVKFD [GPX4_Y123_A120T] returned a Screen of -0.6842.

Sequence EIIPFYGMSSF [FNDC3B_Y175_T179S_YF] showed a Screen of -1.124.

For the sequence ENKGVYVPMSG [IVD_Y277_L279P], the Screen is -1.069.

Turning to EVDETYVPKKF [ALB_Y521_E525K], the Screen is 0.9455.

FRRITYFNWRH [PDE6B_Y556_H557Y_YF]: the Screen is listed as 1.003.

GFKVRYATGSI [FGFR1_Y210_W213G_YF] registered a Screen of 1.302.

For the sequence IDAVCYFRMEN [NPHS2_Y194_I192V_YF], the Screen is reported as -2.251.

Sequence IGGHAYGDQFR [IDH1_Y135_R132G_YF] showed a Screen of -1.313.

Turning to KGEDFYCVTRH [FHL1_Y149_C153R], the Screen is on record as -2.042.

KRIETYFSKNF [PLP1_Y50_L46R_YF] gave a Screen of -0.1285.

LEIETYPRLLD [KRT12_Y429_R430P]: the Screen is 0.133.

LTERSYSFVTT [ACTA1_Y200_G199S]: the Screen was found to be 0.4799.

Take MLEVPYVDHNS [F10_Y384_R387H]: the Screen turned out to be 2.373.

PQDVTYARLHS [LILRB4_Y412_Q414R] came in with a Screen of -1.045.

PRLMLYNPTTF [EGFR_Y270_P266R_YF] returned a Screen of -1.245.

In the case of RALCHYFKLNI [ETV6_Y401_R399C_YF], the Screen was 0.924.

As to REGAKYVSHCA [ASS1_Y113_G117C], the Screen is -1.469.

RGRSTYFWPSP [GAGE12J_Y9_R13S_YF] had a Screen of 0.4744.

Sequence RIDPDYMGRVR [IGSF9_Y81_V82M] returned a Screen of 0.7055.

Regarding RLNCIYFKDQT [RS1_Y165_W163C_YF], the Screen worked out at 0.3384.

Sequence RPAFTYATLIR [FOXP3_Y342_P339A] yielded a Screen of 1.493.

Sequence RSHRSYSCQVM [IGLL1_Y192_R189H] came in with a Screen of -0.4092.

In turn, SLNEEYAKNKT [MSH2_Y563_T564A] returned a Screen of 0.808.

The experiment is the same for the next values; noted with them: sheet "Abl"; effect of variant peptide relative to its reference peptide in pTyr-Var library screen (enrichment).
As to CVAARYMDMKG [WFIKKN2_Y93_V96M], the Screen is -2.912.

With DKPENYRRLDI [VHL_Y175_V170D], the Screen was -0.4882.

For the sequence DTQNSYRCATS [TSC1_Y304_G305R], the Screen was -1.491.

As to DVQNEYDSNHC [ZFYVE16_Y36_A35E], the Screen amounted to 2.88.

EIASHYRHLLR [ZBTB46_Y14_T11A] gave a Screen of -2.772.

In turn, HLQDEYDFKCK [STAT1_Y170_D165H] showed a Screen of -0.7143.

Take HSREDYFECFQ [ZIM2_Y411_Q408R]: the Screen is given as -4.72.

As to IVRSLYEDPED [VHL_Y185_L188P], the Screen is -2.672.

In turn, KDHPDYKFQRR [SOX10_Y171_P175R_YF] came in with a Screen of -0.3891.

Regarding KPGVNYFFQVS [TTN_Y28165_R28168Q_YF], the Screen is recorded as -1.428.

The sequence LEPGIYIPEDD [XPNPEP3_Y455_I450L] had a Screen of -2.688.

LLKMMYLMLDN [STAT1_Y203_K201M]: the Screen stood at 0.1881.

On to NGEDLYAGSTD [XRCC1_Y515_P514L], for which the Screen is reported as 3.605.

On to RRGMPYGGHGD [TGM1_Y312_R315H], for which the Screen was 0.4767.

As to SVTFTYSPALN [TP53_Y126_C124Y_YF], the Screen came to 1.264.

TENAGYFFQVS [TTN_Y31721_R31724Q_YF]: the Screen was -1.788.

In the case of TGFRPYVCPFD [YY1_Y383_D380Y_YF], the Screen is given as -3.682.

The target of the next experiment is c-Src kinase domain (Homo sapiens, UniProt P12931). The experiment is described as above. The conditions noted are these: sheet "Src"; effect of the variant peptide relative to its reference peptide in the pTyr-Var library screen. Type of experiment: biochemical.
DPLLTYLFPPK [LMNA_Y481_R482L] had a Screen of 2.327.

Turning to EFQLPYFNTVP [BMPR1A_Y457_M460T_YF], the Screen is reported as -0.7468.

For EGDGVYTLNNK [HP_Y125_E130K], the Screen was 0.08373.

The sequence EWCSPYGLTPR [GRIN3B_Y601_R598C] came in with a Screen of 1.62.

Consider FVPSFYHAFSG [ACTN4_Y265_S262P_YF], for which the Screen is -1.103.

As to IDPFTYTPFGS [CYP3A4_Y432_I431T_YF], the Screen is -1.161.

The sequence IGERTYGQVFK [CDK13_Y716_G714R_YF] gave a Screen of -0.5578.

In the case of IRSGIYFKPES [L2HGDH_Y102_H98R_YF], the Screen is -1.512.

As to KEKLCYVAPDF [ACTA1_Y220_L223P], the Screen is given as -1.653.

KHCEDYVFSFN [DSC1_Y846_C848F_YF] gave a Screen of 1.064.

In turn, LDFNEYFRFLN [HPRT1_Y198_D201Y_YF] had a Screen of 2.939.

With LFSNAYLSDLA [ALDH1A1_Y119_N121S_YF], the Screen worked out at 1.319.

With NVADHYRVFKP [ATP6V0D2_Y271_G272R_YF], the Screen is -3.184.

Regarding PQDVTYARLHS [LILRB4_Y412_Q414R], the Screen was -0.3004.

QMVGKYASSFM [AVPR2_Y124_M123K_YF]: the Screen is recorded as -1.364.

On to QPEDIYHQTWA [GBA_Y244_G241E], for which the Screen was determined as 0.7767.

The sequence QQMGTYGVRAA [ICAM2_Y260_R256Q] gave a Screen of 0.6458.

Regarding RPAFTYATLIR [FOXP3_Y342_P339A], the Screen is listed as 1.034.

In the case of RPPFTYATLIH [FOXP3_Y342_R347H], the Screen is on record as 0.0554.

With SDPIVYTLENI [EMR1_Y534_I533V], the Screen is recorded as -0.3296.

Sequence VDGSVYKLPPS [GCK_Y413_H416P] registered a Screen of -1.181.

The same experiment, now with this note: sheet "Src"; variant peptide versus its reference peptide in the pTyr-Var library screen.
Regarding ESAAIYNPVIF [RHO_Y301_K296E_YF], the Screen is reported as 0.5635.

Sequence FSCLPYRRLAF [SLC52A2_Y305_G306R_YF] gave a Screen of -1.493.

Consider NQELIYEGQRL [TBK1_Y354_R357Q], for which the Screen is reported as -0.1995.

In turn, NTGVFYDLFGG [PTPN11_Y63_D61V_YF] registered a Screen of 0.1029.

The sequence PLDGGYFTLQI [TP53_Y327_E326G] yielded a Screen of -1.493.

The sequence PPSELYFVKVD [TERT_Y707_P704S] displayed a Screen of -0.06532.

Regarding RRIHSYRGHLC [VHL_Y112_W117C], the Screen is -2.769.

RRIHSYRGQLW [VHL_Y112_H115Q] yielded a Screen of -2.232.

The sequence SVMAEYGLFRA [VSX2_Y219_G223R_YF] gave a Screen of -0.02483.

The subject of the next experiment is Fer kinase domain. The description is as above. Type of experiment: biochemical, mouse. The note with it: sheet "Fer"; value of the variant peptide against its reference peptide in the pTyr-Var library screen with Fer.
As to FPSLPYSPVSS [CAMKK2_Y128_C123Y_YF], the Screen was -0.5143.

For FTFNSYFMHWV [IGHV1-46_Y51_T49N_YF], the Screen amounted to 1.775.

Sequence IDPFTYTPFGS [CYP3A4_Y432_I431T_YF] returned a Screen of -1.49.

Take LTERSYSFVTT [ACTA1_Y200_G199S]: the Screen amounted to 1.792.

As to NTGVFYDLFGG [PTPN11_Y63_D61V_YF], the Screen is on record as 0.6171.

For PLGPLYASSNT [INSR_Y992_P997T], the Screen is -0.7776.

The sequence QPEDIYHQTWA [GBA_Y244_G241E] returned a Screen of 1.354.

In the case of QRCFVYFFSFL [PTEN_Y176_R173C_YF], the Screen was found to be 0.1249.

Consider QRHFVYFFSFL [PTEN_Y176_R173H_YF], for which the Screen was determined as 0.1451.

SDPIVYTLENI [EMR1_Y534_I533V] registered a Screen of -1.778.

The same experiment, now with this note: sheet "Fer"; variant peptide relative to its reference peptide, pTyr-Var library screen enrichment.
With AGDGRYEVLFL [SEMA3F_Y478_A474G], the Screen was found to be 0.6103.

The sequence ESAAIYNPVIF [RHO_Y301_K296E_YF] showed a Screen of 0.08101.

Turning to FDSPFYQDSLP [TSC1_Y508_R509Q], the Screen is 2.568.

FVTSMYNEILI [TRPV1_Y310_M315I] returned a Screen of 0.9219.

In turn, NQELIYEGQRL [TBK1_Y354_R357Q] registered a Screen of 0.5191.
